# Test results reported in US20110130466A1 (priority 2009, published 2011).
# Read-outs that look alike come from different tables or passages of the source.
# Experiments:
# [1] = system: animal models of closed head trauma; details: global focal ischemia, MPTP-induced neurotoxicity, ALS transgenic model, 6-OHDA model; cited from earlier work
# [2] = system: PSP patients; details: for dysphagia, need for a PEG: PSP patients without PEG at initiation, observation phase; for frequency of falls, MW (mean): mean of documented PSP patients, baseline 23.059
# Protocol: Eight men and nine women were treated.
# (§1) The following clinical factors were analyzed: • 1. Patients and relatives received a protocol to document the frequency of falls. • 2. 12 of the patients were analyzed using posturographic measurements. • 3. Depression was evaluated using clinical criteria (DSM-IV). • 4. Eye movements were orthoptically evaluated (in some cases an electronystagmogram was performed). • 5. Dysarthria was investigated using the Bogenhausener dysarthria scale (BoDys) (ranges from 4=normal until 0=anarthria). • 6. Dysphagia was clinically documented and the introduction of a percutaneous feeding tube (PEG) was recorded. • 7. Incidence of pneumonia was recorded. • 8. Impulse control disorder and hallucinations were recorded. • 9. Possible side effects were recorded. • 10.
# [3] = system: PSP patients; details: patient 5, after 6 months of treatment with rasagiline (FIG. 2)
# Protocol: as §1
# [4] = system: apoptotic cell death initiated by mitochondria; details: cell culture, Youdim et al. 2001; Akao et al. 2002; cited from earlier work
# [5] = system: Bcl-2 and Bcl-xL expression; details: parallel to downregulation of pro-apoptotic Bad and Bax; Youdim et al. 2003; cited from earlier work
# [6] = system: patients with PSP; details: 1 mg/day
# Protocol: A clinical trial is performed according to the following guidelines: [table]
# [7] = PSP patients, rasagiline 1 mg/day
smiles,measurement,setting,value
"C#CCN[C@@H]1CCc2ccccc21 [rasagiline, R(+)-N-propargyl-1-aminoindan]",neuroprotection,[1],Neuroprotection by rasagiline was achieved
same,"dysarthria, mean on the BoDys scale","[2]; 10 patients, during observation time, from a mean of 2.5±0.5, 4=normal, 0=anarthria",2.7±0.5
same,deaths during the observation time,"[2]; 17 PSP patients, patients 9 and 4, both after treatment had ended",Two patients died
same,"dysphagia, need for a PEG",[2],none of the other patients required a PEG
same,"dysphagia, need for a PEG",[2]; listed as Rasagiline,effective in improving or slowing progression of dysphagia
same,period of treatment in which the reduction of the frequency of falls mainly took place,[2]; [7],≤ 7 months
same,postural instability / number of falls (in words),[2]; [7],improvement in postural instability was evident within the first 7 months
same,postural instability / number of falls (in words),"[2]; PSP patients, rasagiline 1 mg/day, listed as Rasagiline",effective in reducing the number of falls
same,"frequency of falls, MW (mean)",[2]; 1 Month of rasagiline 1 mg/day,19.824 falls/week
same,"frequency of falls, MW (mean)",[2]; 2 Months of rasagiline 1 mg/day,20.692 falls/week
same,"frequency of falls, MW (mean)",[2]; 3 Months of rasagiline 1 mg/day,20.833 falls/week
same,"frequency of falls, MW (mean)",[2]; 4 Months of rasagiline 1 mg/day,20.667 falls/week
same,"frequency of falls, MW (mean)",[2]; 5 Months of rasagiline 1 mg/day,20.917 falls/week
same,"frequency of falls, MW (mean)",[2]; 6 Months of rasagiline 1 mg/day,19.923 falls/week
same,"frequency of falls, MW (mean)",[2]; 7 Months of rasagiline 1 mg/day,21.917 falls/week
same,"frequency of falls, MW (mean)",[2]; 8 Months of rasagiline 1 mg/day,23.5 falls/week
same,"frequency of falls, MW (mean)",[2]; 9 Months of rasagiline 1 mg/day,22.818 falls/week
same,"frequency of falls, MW (mean)",[2]; 10 Months of rasagiline 1 mg/day,25.1 falls/week
same,"frequency of falls, MW (mean)",[2]; 11 Months of rasagiline 1 mg/day,25.889 falls/week
same,"frequency of falls, MW (mean)",[2]; 12 Months of rasagiline 1 mg/day,24.6 falls/week
same,impulse control disorder,[2]; one patient with impulse control disorder at initiation,not influenced by treatment with rasagiline
same,treating physician's assessment of deaths and intracranial haemorrhage after fall,"[2]; patients 9, 4 and 12",not related to rasagiline
same,effect on eye movements,[2]; rasagiline 1 mg/day,No effect
same,depression during treatment,"[2]; rasagiline 1 mg/day, 12 months observation, listed as Rasagiline",effective in reducing or eliminating depression
same,reversibility of side effects after termination,[2]; three patients with side effects,completely reversible
same,"posturographic measurement, before vs after treatment",[3],shows an improvement
same,suppression of apoptotic cell death,[4],potently suppresses apoptotic cell death
same,expression of anti-apoptotic Bcl-2 and Bcl-xL,[5],induces increase
same,reduction of the reported deterioration (PSPRS),"[6]; 1 year, vs reported mean yearly increase of 9.7",33%
same,"safety, gait disturbances and postural stability",[6]; posturographic measurement,safe and effective in reducing gait disturbances and in enhancing postural stability
